Key:
[1] = system: SCLC strain SHP-77; assay: Colorimetric tetrazolium (MTT) assay for cell survival, SCLC strain SHP-77; assay type: cell-based, human
Protocol: (§1) In general, Anti-bradykinin activity was determined by the classical guinea pig ileum assay and on Chinese hamster ovary (CHO) cells expressing cloned human bradykinin B2 receptors. Anti-tumor activity was determined on cultured human cancer cell lines using the standard tetrazolium (MTT) assay.
Cell growth and survival were measured by a rapid colorimetric assay based on the tetrazolium salt MTT (3-(4,5-dimethylthiazol-2-yl)-2,5-diphenyl tetrazolium bromide) (Mosmann, J Immunol. Methods 65: 55–63, 1983, with minor modifications). Briefly, 1,000 normal lung fibroblasts or normal epithelial BEAS-2B cells, 1,000 or 5,000 viable non-SCLC cells or 10,000 viable SCLC cells were plated in 100 μL of growth medium in 96-well flat-bottomed microtiter plates. Cells were incubated overnight to allow recovery. Compounds to be tested were added to the cells in triplicate in a range of concentrations and the cells were incubated at 37° C., 5% CO2, with 100% humidity. Control cells were treated in the same way without antagonists. […] Plates were incubated for 4 days, allowing sufficient time for cell replication and compound-induced cell death to occur. On day 5, 25 μL of a 2 mg/mL solution of MTT (Sigma) dissolved in RMPI-1640was added to each well. The plate was incubated for 4 h at 37° C. The supernate was removed and the blue formazan complex was dissolved by adding 100 μL of 0.02 N HCl in 75% isopropanol to all wells. Absorbance was immediately determined using a scanning multiwell plate reader. B9870 caused 50% cell death at a concentration of 0.15 μM under these conditions.

[2] = system: bradykinin response of isolated guinea pig ileum; assay: Anti-bradykinin activity on isolated guinea pig ileum
Protocol: as §1
Male Hartley guinea pigs that had been deprived of food overnight were sacrificed, and sections of terminal ileum, 25 mm in length, were dissected, attached to tissue holders and immersed in 10 ml tissue baths containing Krebs' solution bubbled with 95% O2/5% CO2. Tissues were placed under 1 g tension and incubated for 1 h equilibration. Concentration-effect curves were constructed to bradykinin in the absence and presence of new compounds.

[3] = Table 1, higher numbers indicate higher potency
[4] = isolated guinea pig ileum, pD2 of bradykinin is 7.4, higher numbers indicate higher potency

Molecule | MTT: ED50 for killing of SCLC strain SHP-77 in vitro ([1]; Table 1, SHP-77, MTT, 4 days) | MTT: ED50 for killing of SCLC strain SHP-77 in vitro ([1]; SCLC strain SHP-77 in vitro) | further results
BApG-DArg-Arg-Pro-Hyp-Gly-Igl-Ser-DIgl-Oic-Arg [B10084] | >20 µM | – | GPI: pA2 for bradykinin antagonist activity on isolated guinea pig ileum [2, 3]: 8.1
CC1(C)CC(NC(=O)[C@H](Cc2ccc3ccccc3c2)NC(=N)CCCCCCCCCCCCC(=N)N[C@@H](Cc2ccc3ccccc3c2)C(=O)NC2CC(C)(C)NC(C)(C)C2)CC(C)(C)N1 [M254-2] | – | 5 µM | GPI: pA2 for bradykinin antagonist activity on isolated guinea pig ileum [2, 4]: 5.8
CN(C(=O)C(Cc1ccc(OCc2c(Cl)cccc2Cl)cc1)NC(=O)C=Cc1c(F)c(F)c(F)c(F)c1F)C1CC(C)(C)NC(C)(C)C1 (stereo not shown) [M592] | – | 1.5 µM | GPI: pA2 for bradykinin antagonist activity on isolated guinea pig ileum [2, 4]: 4.9
(Dns-DArg-Igl-Arg)2-DDA [M678] | – | 1.1 µM | GPI: pA2 for bradykinin antagonist activity on isolated guinea pig ileum [2, 4]: 5.3
SBEC-(DArg-Arg-Eac-Ser-DF5F-Nc7G-Arg)2 [M1028] | 28 µM | – | GPI: pA2 for bradykinin antagonist activity on isolated guinea pig ileum [2, 3]: 6.7
CC1(C)CC(NC(=O)[C@H](Cc2ccc3ccccc3c2)NC(=O)C2=CN3CCC2CC3)CC(C)(C)N1 [M252] | – | Inact | GPI: pA2 for bradykinin antagonist activity on isolated guinea pig ileum [2, 4]: 4.8
CN(C)c1cccc2c(S(=O)(=O)NC(Cc3ccc(OCc4c(Cl)cccc4Cl)cc3)C(=O)N(C)C3CC(C)(C)NC(C)(C)C3)cccc12 (stereo not shown) [M624] | – | 1.4 µM | GPI: pA2 for bradykinin antagonist activity on isolated guinea pig ileum [2, 4]: 5.1
TDIM-(DArg-Arg-Pro-Hyp-Gly-Thi-Ser-DIgl-Oic-Arg)2 [B10104-2] | 4 µM | – | GPI: pA2 for bradykinin antagonist activity on isolated guinea pig ileum [2, 3]: 8.0
c[DArg-Arg-Add-Ser-DIgl-PFF-Arg] [M882] | – | – | MTT: ED50 for killing of SCLC strain SHP-77 in vitro ([1]; Table 3, cyclic peptides): 4.5 µM; GPI: pA2 for bradykinin antagonist activity on isolated guinea pig ileum ([2]; Table 3, cyclic peptides): Inact
DDD-(DArg-Arg-Eac-Ser-DIgl-Oic-Arg)2 [M854] | 7.3 µM | – | GPI: pA2 for bradykinin antagonist activity on isolated guinea pig ileum [2, 3]: 5.9
F5c-DArg-Arg-Eac-Ser-DIgl-Oic-Arg [M852] | Inact | – | GPI: pA2 for bradykinin antagonist activity on isolated guinea pig ileum [2, 3]: 5.9
F5c-DArg-Arg-Aud-Ser-DIgl-Oic-Arg [M856] | 21 µM | – | GPI: pA2 for bradykinin antagonist activity on isolated guinea pig ileum [2, 3]: 5.4
F5c-MFF-Arg [M826] | 76 µM | – | GPI: pA2 for bradykinin antagonist activity on isolated guinea pig ileum [2, 3]: Inact
Ppa-PFF-Arg [M814] | Inact | – | –
Aaa-Ser-Pac-hPhe-Arg [M752-5] | Inact | – | –
Dmac-DArg-Arg-Aud-Ser-D5F5-Oic-Arg [M968] | 15 µM | – | –
α-DDD-(c[Lys-DArg-Arg-Pro-Hyp-Gly-Thi-Ser-DF5F-Oic-Arg])2 [B10312] | – | – | MTT: ED50 for killing of SCLC strain SHP-77 in vitro ([1]; Table 3, cyclic peptides): 3.8 µM
Aaa-DArg-Arg-Eac-Ser-D5F5-Oic-Arg [M954] | 10 µM | – | –
Aca-DArg-Arg-Aud-Ser-D5F5-Oic-Arg [M960] | 21 µM | – | –
CC1(C)CC(NC(=O)C(Cc2cccc3ccccc23)NC(=O)C(Cc2cnc[nH]2)NC(=O)CCCCCCCCCCC(=O)NC(Cc2cnc[nH]2)C(=O)NC(Cc2cccc3ccccc23)C(=O)NC2CC(C)(C)NC(C)(C)C2)CC(C)(C)N1 (stereo not shown) [M660] | – | 30 µM | –

Molecule | MTT: ED50 for killing of SCLC strain SHP-77 in vitro ([1]; Table 1, SHP-77, MTT, 4 days) | MTT: ED50 for killing of SCLC strain SHP-77 in vitro ([1]; SCLC strain SHP-77 in vitro) | further results
c[DArg-Arg-Eac-DIgl-PFF-Arg] [M896] | – | – | MTT: ED50 for killing of SCLC strain SHP-77 in vitro ([1]; Table 3, cyclic peptides): 65 µM
DDD-(DArg-Arg-Eac-Ser-DF5F-PFF-Arg)2 [M944] | 6.7 µM | – | –
Aaa-DArg-Arg-Aud-Ser-D5F5-Oic-Arg [M956] | 14 µM | – | –
F5bz-DArg-Arg-Aud-Ser-D5F5-Oic-Arg [M958] | 18 µM | – | –
CC1(C)CC(NC(=O)C(Cc2ccc(OCc3c(Cl)cccc3Cl)cc2)NC(=O)CN(CCN(CC(=O)NC(Cc2ccc(OCc3c(Cl)cccc3Cl)cc2)C(=O)NC2CC(C)(C)NC(C)(C)C2)CC(=O)NC(Cc2ccc(OCc3c(Cl)cccc3Cl)cc2)C(=O)NC2CC(C)(C)NC(C)(C)C2)CC(=O)NC(Cc2ccc(OCc3c(Cl)cccc3Cl)cc2)C(=O)NC2CC(C)(C)NC(C)(C)C2)CC(C)(C)N1 (stereo not shown) [M1040, EDTA-(OC2Y-ATMP)4] | – | 0.73 µM | –
c[DArg-Arg Add-DIgl-PFF-Arg] [M878] | – | – | MTT: ED50 for killing of SCLC strain SHP-77 in vitro ([1]; Table 3, cyclic peptides): 7 µM
Pac-hPhe-Arg [M752-2] | Inact | – | –
Dca-hPhe-Arg [M542] | 80 µM | – | –
α-Lys-DArg-Arg-Pro-Hyp-Gly-Igl-Ser-DIgl-Oic-Arg Sub-Arg-DNMF-DTrp-Phe-DTrp-Leu [B9950] | 8 µM | – | –
F5c-PFF-Arg-NH2 [M812] | 15 µM | – | –
c[DArg-Arg-Eac-DF5F-Oic-Arg] [M906] | – | – | MTT: ED50 for killing of SCLC strain SHP-77 in vitro ([1]; Table 3, cyclic peptides): 45 µM
CC1(C)CC(NC(=O)C2CC3CCCCC3N2C(=O)C=Cc2c(F)c(F)c(F)c(F)c2F)CC(C)(C)N1 (stereo not shown) [M320] | – | 13 µM | –
DDD-(DArg-Arg-Eac-Ser-DIgl-PFF-Arg)2 [M932] | 6.0 µM | – | –
DDD-(DArg-hPhe-Arg-NH2)2 [M560] | 50 µM | – | –
DDD-(DArg-PFF-Arg-NH2)2 [M818] | 60 µM | – | –
CC1(C)CC(NC(=O)C(NC(=O)C=Cc2ccc(N)cc2)C2Cc3ccccc3C2)CC(C)(C)N1 (stereo not shown) [M292] | – | 40 µM | –
CC1(C)CC(NC(=O)[C@@H](NC(=N)CCCCCCCCCCCCC(=O)O)C2Cc3ccccc3C2)CC(C)(C)N1 [M280-1] | – | 21 µM | –
CC1(C)CC(NC(=O)C(Cc2ccc(O)cc2)NC(=O)C=Cc2c(F)c(F)c(F)c(F)c2F)CC(C)(C)N1 (stereo not shown) [M316] | – | 50 µM | –
c[Suc-DArg-Arg-Eac-Ser-DIgl-PaF]-Arg [M924] | – | – | MTT: ED50 for killing of SCLC strain SHP-77 in vitro ([1]; Table 3, cyclic peptides): 37 µM
33Dp-DArg-Arg-Aud-Ser-D5F5-Oic-Arg [M964] | 4 to 8 µM | – | –

Molecule | MTT: ED50 for killing of SCLC strain SHP-77 in vitro ([1]; Table 1, SHP-77, MTT, 4 days) | MTT: ED50 for killing of SCLC strain SHP-77 in vitro ([1]; SCLC strain SHP-77 in vitro) | further results
F5c-p-APa-Arg [M216] | >180 µM | – | –
CC1(C)CC(NC(=O)C(Cc2ccc(-c3ccccc3)cc2)NC(=O)C=Cc2cccnc2)CC(C)(C)N1 (stereo not shown) [M296] | – | 15 µM | –
c[Arg-DNMF-DTrp-Phe-DTrp-Leu] [B10306] | – | – | MTT: ED50 for killing of SCLC strain SHP-77 in vitro ([1]; Table 3, cyclic peptides): Inact
Ac-OC2Y-Arg [M784] | Inact | – | –
F5c-DArg-Arg-Aud-Pac-2Nal-Arg [M698] | 7.1 µM | – | –
Dcg-hPhe-Arg [M558] | 100 µM | – | –
Cc1cc(NC(=O)c2cccc(NC(=O)CNC(=O)/C=C/c3cccnc3)c2)c2ccccc2n1 [M428] | – | >300 µM | –
CC1(C)CC(NC(=O)C(Cc2csc3ccccc23)NC(=NC2CCCCC2)NC2CCCCC2)CC(C)(C)N1 (stereo not shown) [M440] | – | 30 µM | –
CC1(C)CC(NC(=O)C(Cc2ccc3ccccc3c2)NC(=O)c2ccc(NC(=N)N)cc2)CC(C)(C)N1 (stereo not shown) [M306] | – | >100 µM | –
COC(=O)C(Cc1ccc(OCc2ccccc2)cc1)N(Cc1ccc(N(C)C)cc1)C(=O)C=Cc1c(F)c(F)c(F)c(F)c1F (stereo not shown) [M614] | – | 9.1 µM | –
Aaa-Pac-hPhe-Arg [M752-6] | Inact | – | –
CC1(C)CC(NC(=O)C2Cc3ccccc3CN2C(=O)C=Cc2c(F)c(F)c(F)c(F)c2F)CC(C)(C)N1 (stereo not shown) [M322] | – | 7.6 µM | –
F5bz-F5F-Arg [M132] | 60 µM | – | –
DDD-(Eac-Arg-Digl-Oic-Arg)2 [B10198-2] | 15 µM | – | –
CN(C)CCCNC(=O)[C@H](Cc1ccc2ccccc2c1)NC(=O)C=Cc1ccc(NC(=O)CCCCCCCCCCC(=O)Nc2ccc(C=CC(=O)N[C@@H](Cc3ccc4ccccc4c3)C(=O)NCCCN(C)C)cc2)cc1 [M538] | – | >80 µM | –
Dcg-Digl-Oic-Arg [B9490] | >60 µM | – | –
CCOC(=O)CN1C(C)(C)CC(NC(=O)C(Cc2ccc3ccccc3c2)NC(=O)C(C2CCCCC2)C2CCCCC2)CC1(C)C (stereo not shown) [M572] | – | 2.6 µM | –
DDD-(DArg-Arg-Aud-Pac-2Nal-DArg-NH2)2 [M710] | 1.7 µM | – | –
F5c-DArg-hPhe-Arg [M612] | Inact | – | –
Cin-hPhe-Arg [M706] | Inact | – | –

Reference: US7071168B2, “Anti-cancer compounds and methods related thereto” (The Regents of the University of Colorado, priority 1998, dated 2006)
